Columns and labels:
[1] = test system: FMR1 expression in FXS-iPSCs; test: RT-PCR analysis of FMR1 expression in FXS-iPSCs; format: cell-based, human; settings: for FMR1 transcription levels (RT-PCR): lentiviral Cas9 and two sgRNAs per candidate gene, vs basal level
Source text: Cell lines: Throughout the study the following cell lines were used: The FXS-iPSCs cell line A52. Haploid hpESCs-hPES10. CSES7 and CSES9 hESCs and their derivatives were used as a reference for wild type expression. 293T cells were used for the construction of lentiviral constructs.
RNA isolation and reverse transcription: Total RNA was isolated using NucleoSpin RNA Plus kit (Macherey-Nagel) and reverse transcribed using the qScript® cDNA Synthesis Kit. Quantitative real time PCR (qRT-PCR) was performed using SYBR Green qPCR Supermix (Applied Biosystems) and analyzed with the 7300 real-time PCR system (Applied biosystems). FMR1 expression was assessed using specific primers, which amplified a 147 bp product spanning exons 5-6 of FMR1. GAPDH was used for normalization.
DNMT1 disruption assay: As human pluripotent stem cells require DNA methylation for their viability, heterogenous DNMT1-mutant populations of FXS-iPSCs were generated by infecting the cells with a lentiCRISPR v2 lentiviral vector containing an sgRNA that targets the open reading frame of DNMT1. The sgRNA sequence was cloned into the lentiCRISPR v2 plasmid and transformed into Stb13 chemically competent bacteria. Following plasmid isolation, 293T cells were transfected with sgRNA-containing lentiCRISPR V2, psPAX2, and pCMV-VSV-G plasmids at a ratio of 13.3:10:6.6, respectively, in the presence of polyethylenimine ‘Max’ (Polysciences). Lentiviral particle-containing supernatant was collected ˜65 hours after transfection and filtered using […] filters. For transduction, FXS-iPSCs were trypsinized, centrifuged, and suspended in embryonic stem cell media supplemented with 10 μM ROCK inhibitor (Y27632) and 8 μg/ml polybrene (Sigma). The viruses were added to the cell suspension, and the cells were plated on MEFs overnight. After ˜36 hours, the cells' medium was replaced with puromycin-containing medium ([…], Sigma). After 2-14 days selection with puromycin, cells were harvested for RNA extraction. To confirm DNMT1 mutagenesis in the transduced cells, qRT-PCR primers that were designed to have their 3′ ends around the Cas9 cut-site of DNMT1 were used to analyze the abundance of wild-type copies to DNMT1 transcripts.
Generation of gene knockouts: Ten candidate genes were targeted using a lentiviral construct containing Cas9 and a specific sgRNA (Table 2). Two sgRNAs were used to target each candidate gene. Each sgRNA sequence was inserted into a separate lentiCRISPR v2 vector (Addgene cat. No. 52961). As a control, a lentiCRISPR v2 vector without any sgRNA (empty vector) was used. Lentiviruses were produced using 293T cells cultured in 10 cm plates using transfection with the sgRNA-containing-lentiCRISPR v2 construct, psPAX2 (Addgene cat. No. 12260) and pCMV-VSV-G (Addgene cat. No. 8454) at a ratio of 5.32:4:2.64 ratio, in the presence of polyethylenimine “Max” (PEI-Max) (Polysciences) at a 1:2 ratio of DNA to PEI-Max. After 24 hours, the medium was exchanged with standard hESC medium, which was harvested 60-65 hours following transfection, centrifuged, and filtered through 0.45 μm cellulose acetate filters (Millipore). The filtered supernatant was frozen in aliquots at −70° C. For transduction, FXS-iPSCs or haploid human ESCs were trypsinized with TrypLE™ Select, centrifuged, and resuspended in hESC medium supplemented with 8 μg ml-1 polybrene (Sigma) and 10 μM ROCK inhibitor (Y27632). Thawed or fresh viruses were added to the cell suspension, followed by plating the cells on feeder layer MEFs. […]

[2] = test system: methylated pFMR1-(240) CGG-EGFP construct in haploid hESCs; test: methylated pFMR1-(240) CGG-EGFP reporter transfection in mutant haploid hESCs, flow cytometry; format: cell-based, human; settings: Cas9 + two sgRNAs per gene, compared to Cas9 without sgRNA
Procedure: In vitro DNA methylation: pFMR1-n (CGG)-eGFP construct was methylated using an M.SssI CpG methyltransferase (NEB) according to manufacturer's recommendations. SAM concentration was adjusted to 640 μM. DNA was extracted using ethanol precipitation.
Library transfection: 10 μM ROCK inhibitor (Y27632) was added 1 hour prior to trypsinization and transfection. Library cells were harvested using TrypLE™ Select Enzyme solution (Thermo Fisher Scientific, Cat #12563029) in a single cell state. Following the first centrifugation, cells were re-suspended twice with DMEM/F12 and centrifuged again before incubation with the plasmid DNA. Transfection of the methylated pFMR1-CGG (240)-EGFP construct was performed using the Xtreme Gene9 reagent (Roche), using standard conditions. 48 hours following transfection, cells were washed with PBS, harvested using TrypLE™ Select, resuspended in PBS supplemented with 15% fetal bovine serum (FBS) and filtered through a 70-μm cell strainer (Corning) and sorted using BD FACDAria III. Transfection efficiency was assessed using the simultaneous transfection of control haploid hESCs with an unmethylated pFMR1-CGG (240)-EGFP construct.
Generation of gene knockouts: Ten candidate genes were targeted using a lentiviral construct containing Cas9 and a specific sgRNA (Table 2). Two sgRNAs were used to target each candidate gene. Each sgRNA sequence was inserted into a separate lentiCRISPR v2 vector (Addgene cat. No. 52961). As a control, a lentiCRISPR v2 vector without any sgRNA (empty vector) was used. Lentiviruses were produced using 293T cells cultured in 10 cm plates using transfection with the sgRNA-containing-lentiCRISPR v2 construct, psPAX2 (Addgene cat. No. 12260) and pCMV-VSV-G (Addgene cat. No. 8454) at a ratio of 5.32:4:2.64 ratio, in the presence of polyethylenimine “Max” (PEI-Max) (Polysciences) at a 1:2 ratio of DNA to PEI-Max. After 24 hours, the medium was exchanged with standard hESC medium, which was harvested 60-65 hours following transfection, centrifuged, and filtered through 0.45 μm cellulose acetate filters (Millipore). […]

| Substance | FMR1 transcription levels (RT-PCR) [1] | methylated construct expression (relative GFP fluorescence) [2] | FMR1 expression (RT-PCR) ([1]; 5 μM, 4 days) | FMR1 expression (RT-PCR) ([1]; lentiviral sgRNA + Cas9, collected 7-14 days after start of selection, vs control FXS-iPSCs) |
| --- | --- | --- | --- | --- |
| C6orf57: lentiviral Cas9 constructs with two sgRNAs targeting C6orf57 (guide 1 GAGACCCAGCTAAGCAACCA; guide 2 TCCCAATCTCCATATCGGGT; expressed or natural sequence; listed as Homo sapiens) | some increase above basal FMR1 transcription levels | highest levels of methylated construct expression | – | – |
| 5′-aza-2′-deoxycytidine [5-azadC, reference compound] | – | – | reactivation of FMR1 expression | – |
| SMARCD1: lentiviral Cas9 constructs with two sgRNAs targeting SMARCD1 (guide 1 GGAGCCGGGCCCATTCGCAC; guide 2 GCCACTACCCAGGAGACCGA; expressed or natural sequence; listed as Homo sapiens) | some increase above basal FMR1 transcription levels | highest levels of methylated construct expression | – | – |
| ZNF217: lentiviral Cas9 constructs with two sgRNAs targeting ZNF217 (guide 1 GTGGTGAACGGATCGAGCTG; guide 2 TCTGGATGAAAATGGAGCCG; expressed or natural sequence; listed as Homo sapiens) | some increase above basal FMR1 transcription levels | highest levels of methylated construct expression | – | – |
| sgRNA targeting DNMT1: lentiCRISPR v2 vector with Cas9 and sgRNA GAGGCCAGAAGGAGGAACCG targeting DNMT1 (listed as Homo sapiens) | – | – | – | reactivation of FMR1 expression |

Reference: patent publication US20250066769A1, “METHODS OF SCREENING AND TREATING FRAGILE X SYNDROME” (YISSUM RESEARCH DEVELOPMENT COMPANY OF THE HEBREW …, priority 2021, published 2025)
